{"source": "patent US4210638A", "about": "“Antiviral composition and method of treating virus diseases” (PCR, Inc., priority 1978, dated 1980)", "key": {"man": {"tested_on": "man", "conditions": "extremely high concentrations; cited from earlier work"}, "uninfected cells": {"tested_on": "uninfected cells", "conditions": "cited from earlier work; for toxicity in culture: cell culture; for toxicity towards uninfected cells compared with deoxyuridine compounds: Greer et al. 1975"}, "Herpes simplex": {"tested_on": "Herpes simplex", "conditions": "cited from earlier work"}, "[1]": {"tested_on": "uridine and thymidine phosphorylase", "conditions": "cited from earlier work"}, "vaccinia": {"tested_on": "vaccinia", "conditions": "Shugar 1974; cited from earlier work"}, "vesicular stomatitis": {"tested_on": "vesicular stomatitis", "conditions": "Shugar 1974; cited from earlier work"}, "[2]": {"tested_on": "HSV infections of the eye", "conditions": "cited from earlier work; for antiviral activity against HSV infections of the eye: Kaufman 1962 / Heidelberger"}, "human encephalitis": {"tested_on": "human encephalitis", "conditions": "in vivo; cited from earlier work"}, "recurrent genital Herpes": {"tested_on": "recurrent genital Herpes", "conditions": "in vivo; cited from earlier work"}, "[3]": {"molecular_target": "T1, HSV-2 induced pyrimidine deoxyribonucleoside kinase (Human herpesvirus 2 strain HG52, UniProt P89446)", "T1 construct": "preparation not described in the excerpts", "T1 sequence (P89446 whole entry)": "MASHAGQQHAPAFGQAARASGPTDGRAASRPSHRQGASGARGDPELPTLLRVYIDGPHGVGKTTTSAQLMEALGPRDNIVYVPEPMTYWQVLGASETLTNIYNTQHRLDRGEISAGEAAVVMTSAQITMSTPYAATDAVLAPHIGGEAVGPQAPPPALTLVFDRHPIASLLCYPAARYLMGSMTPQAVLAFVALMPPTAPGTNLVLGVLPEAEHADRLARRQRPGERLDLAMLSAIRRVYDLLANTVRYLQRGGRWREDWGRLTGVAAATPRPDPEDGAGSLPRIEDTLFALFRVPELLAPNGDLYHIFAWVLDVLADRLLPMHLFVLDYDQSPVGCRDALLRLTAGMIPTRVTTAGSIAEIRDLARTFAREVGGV", "test": "Phosphorylation by HSV-2 induced pyrimidine deoxyribonucleoside kinase", "type": "biochemical", "conditions": "for nmoles phosphorylated/60min.: solutions a, c, d adjusted to the same O.D.", "from_the_text": "The following spots were eluted into H2 O and scanned from 225 to 350 nm: (a) standard, (b) F3 methyl dC standard, […] spot after cytidine deaminase treatment of F3 dT and […] spot after cytidine deaminase treatment of F3 methyl dC. The u.v. absorption profile of F3 dT derived from deamination of F3 methyl dC is identical to that obtained from authentic F3 dT.\nSolutions a, c, and d, above, were adjusted to the same O. D. and used as substrates for HSV-2 induced pyrimidine deoxyribonucleoside kinase. Results:\nStock solutions of F3 dT and F3 methyl dC were made up and adjusted to the same concentration as the F3 dT and F3 methyl dC purified chromatographically (solutions a and b, respectively). Usually, F3 methyl dC is phosphorylated 1/6 of the extent that F3 dT is phosphorylated. […] This experiment was performed twice. Results:\nValues for chromatographically purified samples are probably lower due to impurities arising from non-acid washed paper."}, "cytidine deaminase": {"tested_on": "cytidine deaminase", "test": "Incubation with crude cytidine deaminase extract of HEP-2 cells (deamination)", "type": "in vitro ADME, human", "conditions": "crude HEP-2 cytidine deaminase extract; Whatman 3MM chromatography"}, "[4]": {"test": "Incubation with HNO2 (pH 4.5) at room temperature", "type": "physicochemical", "protocol": "(§1) The results of incubation with HNO2 (pH 4.5) at room temperature were identical to those obtained above."}, "[5]": {"test": "Incubation with acetate buffer (pH 4.5)", "type": "physicochemical", "conditions": "9 hours", "protocol": "as §1"}, "[6]": {"conditions": "in vivo; cited from earlier work"}, "HEp-2 cells": {"tested_on": "HEp-2 cells", "test": "Cytotoxicity vs HEp-2 cells (colony formation, % survival)"}, "HSV-2": {"tested_on": "HSV-2", "test": "Antiviral activity vs HSV-2 in HEp-2 cells (plaque assay in BHK cells)", "type": "cell-based", "conditions": "100 or 500 μg/ml", "protocol": "The culture medium containing the nucleoside analogs at varying concentrations are added to the infected cultures. In the case of HEp-2 cells which contain high deaminase levels, H4 U is incorporated into the medium. At 48 hours, virus is harvested from the cultures by freezing and thawing. The virus produced from each culture is titred by plaque assay in BHK cells. By using this protocol the antiviral effectiveness of F3 methyl dC can be compared directly with the effectiveness of other antiviral agents. Furthermore, by including H4 U in the medium, the effectiveness of F3 methyl dC can be determined without deamination at the nucleoside level."}, "animal systems": {"tested_on": "animal systems", "conditions": "usually must be administered very soon after infection; cited from earlier work"}}}
{"smiles": "O=C1NC(O)CCN1[C@H]1C[C@H](O)[C@@H](CO)O1", "note": "(some centres unmarked) [2'-deoxytetrahydrouridine]", "values": [{"measurement": "toxicity in man", "setting": "man", "value": "not toxic in man at extremely high concentrations"}]}
{"smiles": "C=CCc1cn([C@H]2C[C@H](O)[C@@H](CO)O2)c(=O)[nH]c1=O", "note": "[5-allyl-2'-deoxyuridine]", "values": [{"measurement": "toxicity in culture", "setting": "uninfected cells", "value": "non-toxic in culture"}, {"measurement": "antiviral activity against Herpes simplex in cell culture", "setting": "Herpes simplex", "value": "do exhibit antiviral activity"}, {"measurement": "substrate for catabolic enzymes uridine and thymidine phosphorylase", "setting": "[1]", "value": "substrates for the catabolic enzymes"}]}
{"smiles": "CCc1cn([C@H]2C[C@H](O)[C@@H](CO)O2)c(=O)nc1N", "note": "[5-ethyl-2'-deoxycytidine]", "values": [{"measurement": "antiviral activity against HSV infected cells", "setting": "Herpes simplex; Shugar 1974", "value": "only a low antiviral activity"}, {"measurement": "activity against vaccinia", "setting": "vaccinia", "value": "no activity"}, {"measurement": "activity against vesicular stomatitis", "setting": "vesicular stomatitis", "value": "no activity"}]}
{"smiles": "CCc1cn([C@H]2C[C@H](O)[C@@H](CO)O2)c(=O)[nH]c1=O", "note": "[5-ethyl-2'-deoxyuridine]", "values": [{"measurement": "toxicity in culture", "setting": "uninfected cells", "value": "non-toxic in culture"}, {"measurement": "antiviral activity against Herpes simplex in cell culture", "setting": "Herpes simplex", "value": "do exhibit antiviral activity"}, {"measurement": "substrate for catabolic enzymes uridine and thymidine phosphorylase", "setting": "[1]", "value": "substrates for the catabolic enzymes"}]}
{"smiles": "O=c1[nH]c(=O)n([C@H]2C[C@H](O)[C@@H](CO)O2)cc1F", "note": "[5-fluorodeoxyuridine]", "values": [{"measurement": "antiviral activity against HSV infections of the eye", "setting": "[2]", "value": "very little antiviral activity"}]}
{"smiles": "CNc1cn([C@H]2C[C@H](O)[C@@H](CO)O2)c(=O)[nH]c1=O", "note": "[5-methyl amino-2'-deoxyuridine]", "values": [{"measurement": "toxicity in culture", "setting": "uninfected cells", "value": "non-toxic in culture"}, {"measurement": "substrate for catabolic enzymes uridine and thymidine phosphorylase", "setting": "[1]", "value": "substrates for the catabolic enzymes"}]}
{"smiles": "Cc1cn([C@H]2C[C@H](O)[C@@H](CO)O2)c(=O)nc1N", "note": "[5-methyl-2'-deoxycytidine]", "values": [{"measurement": "antiviral activity against HSV infected cells compared with 5-methyl-2'-deoxyuridine", "setting": "Herpes simplex; Lin and Prusoff 1977", "value": "less effective"}]}
{"smiles": "O=c1[nH]c(=O)n([C@H]2C[C@H](O)[C@@H](CO)O2)cc1-c1ccccc1", "note": "[5-phenyl-2'-deoxyuridine]", "values": [{"measurement": "toxicity in culture", "setting": "uninfected cells", "value": "non-toxic in culture"}, {"measurement": "antiviral activity against Herpes simplex in cell culture", "setting": "Herpes simplex", "value": "do exhibit antiviral activity"}, {"measurement": "substrate for catabolic enzymes uridine and thymidine phosphorylase", "setting": "[1]", "value": "substrates for the catabolic enzymes"}]}
{"smiles": "CCCc1cn([C@H]2C[C@H](O)[C@@H](CO)O2)c(=O)[nH]c1=O", "note": "[5-propyl-2'-deoxyuridine]", "values": [{"measurement": "toxicity in culture", "setting": "uninfected cells", "value": "non-toxic in culture"}, {"measurement": "antiviral activity against Herpes simplex in cell culture", "setting": "Herpes simplex", "value": "do exhibit antiviral activity"}, {"measurement": "substrate for catabolic enzymes uridine and thymidine phosphorylase", "setting": "[1]", "value": "substrates for the catabolic enzymes"}]}
{"smiles": "N#CSc1cn([C@H]2C[C@H](O)[C@@H](CO)O2)c(=O)[nH]c1=O", "note": "[5-thiocyanato-2'-deoxyuridine]", "values": [{"measurement": "toxicity in culture", "setting": "uninfected cells", "value": "non-toxic in culture"}, {"measurement": "antiviral activity against Herpes simplex in cell culture", "setting": "Herpes simplex", "value": "do exhibit antiviral activity"}, {"measurement": "substrate for catabolic enzymes uridine and thymidine phosphorylase", "setting": "[1]", "value": "substrates for the catabolic enzymes"}]}
{"smiles": "Nc1ncnc2c1ncn2[C@@H]1O[C@H](CO)[C@@H](O)[C@@H]1O", "note": "[Adenine arabinoside]", "values": [{"measurement": "incidence of death due to human encephalitis", "setting": "human encephalitis", "value": "decrease the incidence of death"}, {"measurement": "effect against recurrent genital Herpes", "setting": "recurrent genital Herpes", "value": "neither effective against recurrent genital Herpes"}]}
{"smiles": "Nc1nc(=O)n([C@H]2C[C@H](O)[C@@H](CO)O2)cc1Br", "note": "[BrdC, 5-bromo-2'-deoxycytidine]", "values": [{"measurement": "toxicity towards uninfected cells compared with deoxyuridine compounds", "setting": "uninfected cells", "value": "substantially less toxic towards uninfected cells"}]}
{"smiles": "O=c1[nH]c(=O)n([C@H]2C[C@H](O)[C@@H](CO)O2)cc1C(F)(F)F", "note": "[F3 dT, 5-trifluoromethyl-2'-deoxyuridine]", "values": [{"measurement": "nmoles phosphorylated/4 hrs", "setting": "[3]; chromatographically purified, value in parentheses (experiment performed twice)", "value": 0.19, "unit": "nmoles/4 hrs"}, {"measurement": "nmoles phosphorylated/4 hrs", "setting": "[3]; chromatographically purified, value outside parentheses", "value": 0.16, "unit": "nmoles/4 hrs"}, {"measurement": "extent of phosphorylation compared with F3 dT", "setting": "[3]; product of cytidine deaminase treatment of F3 methyl dC (d)", "value": "to the same extent as F3 dT"}, {"measurement": "nmoles phosphorylated/60min.", "setting": "[3]; listed as a", "value": 0.07, "unit": "nmoles/60min"}, {"measurement": "nmoles phosphorylated/60min.", "setting": "[3]; listed as c", "value": 0.08, "unit": "nmoles/60min"}, {"measurement": "nmoles phosphorylated/60min.", "setting": "[3]; listed as d", "value": 0.05, "unit": "nmoles/60min"}, {"measurement": "nmoles phosphorylated/4 hrs", "setting": "[3]; standard solutions, value in parentheses (experiment performed twice)", "value": 0.57, "unit": "nmoles/4 hrs"}, {"measurement": "nmoles phosphorylated/4 hrs", "setting": "[3]; standard solutions, value outside parentheses", "value": 0.48, "unit": "nmoles/4 hrs"}, {"measurement": "chromatographic change on incubation with cytidine deaminase", "setting": "cytidine deaminase", "value": "remained unchanged chromatographically"}, {"measurement": "change on incubation with HNO2", "setting": "[4]", "value": "remained unaltered"}, {"measurement": "modification in acetate buffer", "setting": "[5]", "value": "did not lead to modification"}, {"measurement": "antiviral activity against HSV infections of the eye", "setting": "[2]", "value": "does exhibit antiviral activity against infections of the eye"}, {"measurement": "catabolism in the body", "setting": "[6]", "value": "rapid catabolism"}, {"measurement": "toxicity towards uninfected cells", "setting": "uninfected cells", "value": "exhibit toxicity towards uninfected cells"}, {"measurement": "cytotoxicity at concentrations with antiviral activity", "setting": "HEp-2 cells; ±H4 U", "value": "extremely cytotoxic"}]}
{"smiles": "O=C1NC(O)CCN1[C@@H]1O[C@H](CO)[C@@H](O)[C@H]1O", "note": "(some centres unmarked) [H4 U, tetrahydrouridine, reference compound]", "values": [{"measurement": "antiviral activity of H4 U", "setting": "HSV-2", "value": "does not display any antiviral activity"}, {"measurement": "toxicity in man", "setting": "man", "value": "not toxic in man at extremely high concentrations"}, {"measurement": "cytotoxic activity of H4 U", "setting": "HEp-2 cells; 100 or 500 μg/ml", "value": "does not display any cytotoxic activity"}]}
{"smiles": "Nc1nc(=O)n([C@H]2C[C@H](O)[C@@H](CO)O2)cc1I", "note": "[IdC, 5-iodo-2'-deoxycytidine]", "values": [{"measurement": "treatment of Herpes Keratitis in humans compared with IdU", "setting": "[2]; humans, Kurimoto et al. 1969", "value": "more effective"}, {"measurement": "toxicity towards uninfected cells compared with deoxyuridine compounds", "setting": "uninfected cells", "value": "substantially less toxic towards uninfected cells"}]}
{"smiles": "O=c1[nH]c(=O)n([C@H]2C[C@H](O)[C@@H](CO)O2)cc1I", "note": "[IdU, 5-iodo-2'-deoxyuridine]", "values": [{"measurement": "antiviral activity against HSV infections of the eye", "setting": "[2]", "value": "exhibits antiviral activity against HSV infections of the eye"}, {"measurement": "effectiveness against Herpes Keratitis compared with F3 dT", "setting": "[2]; in vivo", "value": "less effective than F3 dT"}, {"measurement": "catabolism in the body", "setting": "[6]", "value": "rapid catabolism"}, {"measurement": "toxicity towards uninfected cells", "setting": "uninfected cells", "value": "exhibit toxicity towards uninfected cells"}, {"measurement": "effectiveness in human Herpes encephalitis", "setting": "human encephalitis", "value": "ineffectiveness"}]}
{"smiles": "O=C(O)CP(=O)(O)O", "note": "[Phosphonacetic acid]", "values": [{"measurement": "efficacy in animal systems", "setting": "animal systems", "value": "effective in animal systems"}]}
{"smiles": "Nc1ncnc2c1ncn2[C@@H]1O[C@H](COP(=O)(O)O)[C@@H](O)[C@@H]1O", "note": "[ara-AMP]", "values": [{"measurement": "effect against recurrent genital Herpes", "setting": "recurrent genital Herpes", "value": "neither effective against recurrent genital Herpes"}]}
